The source of these data is patent publication US20160159789A1, “SUBSTITUTED PYRAZOLOPYRIDINES” (BAYER PHARMA AKTIENGESELLSCHAFT, priority 2013, published 2016).

In this test the target is T1, human full-length MKNK1 (Homo sapiens, UniProt Q9BUB5, T385D).
T1 construct: purchased Carna Biosciences 02-145; host or cells: insect cells (baculovirus expression system)
T1 sequence (Q9BUB5 1-424 isoform Q9BUB5-2 T344D): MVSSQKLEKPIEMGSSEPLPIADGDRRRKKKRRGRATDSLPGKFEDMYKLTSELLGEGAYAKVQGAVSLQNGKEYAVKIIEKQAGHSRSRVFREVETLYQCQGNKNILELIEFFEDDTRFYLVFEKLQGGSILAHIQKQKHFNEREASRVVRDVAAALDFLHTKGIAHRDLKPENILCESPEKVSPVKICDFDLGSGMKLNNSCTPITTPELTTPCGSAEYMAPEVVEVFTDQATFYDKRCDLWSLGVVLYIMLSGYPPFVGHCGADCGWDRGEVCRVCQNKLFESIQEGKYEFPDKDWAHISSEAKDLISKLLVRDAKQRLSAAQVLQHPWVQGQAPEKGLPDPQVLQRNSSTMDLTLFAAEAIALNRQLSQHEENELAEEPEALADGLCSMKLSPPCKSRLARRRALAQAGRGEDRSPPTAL
The test is described as follows: MKNK1 kinase high ATP assay (TR-FRET). The note with it: high ATP (2 mM final), 15 min preincubation with enzyme, GST-MKNK1 (T344D). Type of test: biochemical. The procedure, abridged: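 GST-tagged full-length human MKNK1 from insect cells, preincubated 15 min with compound at 22° C in HEPES pH 7.5/MgCl2/DTT buffer, then reacted 30 min with 2 mM ATP and 0.06 μM biotinylated peptide (final). Phosphopeptide detected by TR-FRET (anti-pS6 pSer236/Eu-ProteinG, streptavidin-XL665), 665/620 ratio normalised to no-enzyme and no-inhibitor controls.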
A general note: In TR-FRET formats the signal depends on donor and acceptor labels being close together.
For the compound `CC(C)NC(=O)[C@H]1CCc2c(sc3ncnc(Nc4cc5cn[nH]c5cn4)c23)C1` [Example 80, (7S)—N-(Propan-2-yl)-4-(1H-pyrazolo[3,4-c]pyridin-5-ylamino)-5,6,7,8-tetrahydro[1]benzothieno[2,3-d]pyrimidine-7-carboxamide], it took 23.9 nM to reach half-maximal inhibition (IC50).
As for `CCCN(C)C(=O)[C@H]1CCc2c(sc3ncnc(Nc4cc5cn[nH]c5cn4)c23)C1` [Example 81, (7S)—N-Methyl-N-propyl-4-(1H-pyrazolo[3,4-c]pyridin-5-ylamino)-5,6,7,8-tetrahydro[1]benzothieno[2,3-d]pyrimidine-7-carboxamide], inhibition was half-maximal at 16.1 nM (IC50).
The value for `N#CC1CN(C(=O)[C@H]2CCc3c(sc4ncnc(Nc5cc6cn[nH]c6cn5)c34)C2)C1` [Example 82, 1-{[(7S)-4-(1H-Pyrazolo[3,4-c]pyridin-5-ylamino)-5,6,7,8-tetrahydro[1]benzothieno[2,3-d]pyrimidin-7-yl]carbonyl}azetidine-3-carbonitrile] was 3.2 nM; that for `O=C([C@H]1CCc2c(sc3ncnc(Nc4cc5cn[nH]c5cn4)c23)C1)N1CC2(COC2)C1` [Example 83, 2-Oxa-6-azaspiro[3.3]hept-6-yl[(7S)-4-(1H-pyrazolo[3,4-c]pyridin-5-ylamino)-5,6,7,8-tetrahydro[1]benzothieno[2,3-d]pyrimidin-7-yl]methanone] was 6.9 nM.
`CN(C)[C@@H]1CCN(C(=O)[C@H]2CCc3c(sc4ncnc(Nc5cc6cn[nH]c6cn5)c34)C2)C1` [Example 84, [(3R)-3-(Dimethylamino)pyrrolidin-1-yl][(7S)-4-(1H-pyrazolo[3,4-c]pyridin-5-ylamino)-5,6,7,8-tetrahydro[1]benzothieno[2,3-d]pyrimidin-7-yl]methanone]: the concentration for half-maximal inhibition (IC50) (usually the point on the concentration scale where inhibition reaches its midpoint) was 3.6 nM.
As to `CN(C)[C@H]1CCN(C(=O)[C@H]2CCc3c(sc4ncnc(Nc5cc6cn[nH]c6cn5)c34)C2)C1` [Example 85, [(3S)-3-(Dimethylamino)pyrrolidin-1-yl][(7S)-4-(1H-pyrazolo[3,4-c]pyridin-5-ylamino)-5,6,7,8-tetrahydro[1]benzothieno[2,3-d]pyrimidin-7-yl]methanone], the half-maximal inhibitory concentration (IC50) came to 4.5 nM.
Compound `O=C([C@H]1CCc2c(sc3ncnc(Nc4cc5cn[nH]c5cn4)c23)C1)N1CCOCC1` [Example 86, Morpholin-4-yl [(7S)-4-(1H-pyrazolo[3,4-c]pyridin-5-ylamino)-5,6,7,8-tetrahydro[1]benzothieno[2,3-d]pyrimidin-7-yl]methanone] registered an IC50 of 7.1 nM.
As for `C[C@H]1COCCN1C(=O)[C@H]1CCc2c(sc3ncnc(Nc4cc5cn[nH]c5cn4)c23)C1` [Example 87, [(3S)-3-Methylmorpholin-4-yl][(7S)-4-(1H-pyrazolo[3,4-c]pyridin-5-ylamino)-5,6,7,8-tetrahydro[1]benzothieno[2,3-d]pyrimidin-7-yl]methanone], half-maximal inhibition (IC50) was put at 10.5 nM.
The figure for `C[C@@H]1COCCN1C(=O)[C@H]1CCc2c(sc3ncnc(Nc4cc5cn[nH]c5cn4)c23)C1` [Example 88, [(3R)-3-Methylmorpholin-4-yl][(7S)-4-(1H-pyrazolo[3,4-c]pyridin-5-ylamino)-5,6,7,8-tetrahydro[1]benzothieno[2,3-d]pyrimidin-7-yl]methanone] is 8 nM; for `C[C@@H]1CN(C(=O)[C@H]2CCc3c(sc4ncnc(Nc5cc6cn[nH]c6cn5)c34)C2)C[C@H](C)O1` [Example 89, [(2R,6S)-2,6-Dimethylmorpholin-4-yl][(7S)-4-(1H-pyrazolo[3,4-c]pyridin-5-ylamino)-5,6,7,8-tetrahydro[1]benzothieno[2,3-d]pyrimidin-7-yl]methanone] it is 5.9 nM.
The value for `CN1CCN(C(=O)[C@H]2CCc3c(sc4ncnc(Nc5cc6cn[nH]c6cn5)c34)C2)CC1` [Example 90, (4-Methylpiperazin-1-yl)[(7S)-4-(1H-pyrazolo[3,4-c]pyridin-5-ylamino)-5,6,7,8-tetrahydro[1]benzothieno[2,3-d]pyrimidin-7-yl]methanone] was 5.2 nM.
Turning to `CN(C)C1CCN(C(=O)[C@H]2CCc3c(sc4ncnc(Nc5cc6cn[nH]c6cn5)c34)C2)CC1` [Example 91, [4-(Dimethylamino)piperidin-1-yl][(7S)-4-(1H-pyrazolo[3,4-c]pyridin-5-ylamino)-5,6,7,8-tetrahydro[1]benzothieno[2,3-d]pyrimidin-7-yl]methanone], half-maximal inhibition (IC50) required 3.1 nM.
Regarding `CCN(C)C(=O)[C@H]1CCc2c(sc3ncnc(Nc4cnc5[nH]ncc5c4)c23)C1` [Example 92, (7S)—N-Ethyl-N-methyl-4-(1H-pyrazolo[3,4-b]pyridin-5-ylamino)-5,6,7,8-tetrahydro[1]benzothieno[2,3-d]pyrimidine-7-carboxamide], the half-maximal inhibitory concentration (IC50) was 15.4 nM.
On to `CCCN(C)C(=O)[C@H]1CCc2c(sc3ncnc(Nc4cnc5[nH]ncc5c4)c23)C1` [Example 93, (7S)—N-Methyl-N-propyl-4-(1H-pyrazolo[3,4-b]pyridin-5-ylamino)-5,6,7,8-tetrahydro[1]benzothieno[2,3-d]pyrimidine-7-carboxamide], for which the 50% inhibitory concentration (IC50) worked out at 13.5 nM.
On to `CN(CCC(F)(F)F)C(=O)[C@H]1CCc2c(sc3ncnc(Nc4cnc5[nH]ncc5c4)c23)C1` [Example 94, (7S)—N-Methyl-4-(1H-pyrazolo[3,4-b]pyridin-5-ylamino)-N-(3,3,3-trifluoropropyl)-5,6,7,8-tetrahydro[1]benzothieno[2,3-d]pyrimidine-7-carboxamide], for which half-maximal inhibition (IC50) was put at 8.2 nM.
`CC(C)N(C)C(=O)[C@H]1CCc2c(sc3ncnc(Nc4cnc5[nH]ncc5c4)c23)C1` [Example 95, (7S)—N-Methyl-N-(propan-2-yl)-4-(1H-pyrazolo[3,4-b]pyridin-5-ylamino)-5,6,7,8-tetrahydro[1]benzothieno[2,3-d]pyrimidine-7-carboxamide] showed an IC50 of 18 nM.
Compound `COCCN(C)C(=O)[C@H]1CCc2c(sc3ncnc(Nc4cnc5[nH]ncc5c4)c23)C1` [Example 96, (7S)—N-(2-Methoxyethyl)-N-methyl-4-(1H-pyrazolo[3,4-b]pyridin-5-ylamino)-5,6,7,8-tetrahydro[1]benzothieno[2,3-d]pyrimidine-7-carboxamide] registered an IC50 of 18.8 nM.
Compound `O=C([C@H]1CCc2c(sc3ncnc(Nc4cnc5[nH]ncc5c4)c23)C1)N1CCC1` [Example 97, Azetidin-1-yl[(7S)-4-(1H-pyrazolo[3,4-b]pyridin-5-ylamino)-5,6,7,8-tetrahydro[1]benzothieno[2,3-d]pyrimidin-7-yl]methanone] had an IC50 of 47.6 nM.
Take `O=C([C@H]1CCc2c(sc3ncnc(Nc4cnc5[nH]ncc5c4)c23)C1)N1CC2(COC2)C1` [Example 98, 2-Oxa-6-azaspiro[3.3]hept-6-yl[(7S)-4-(1H-pyrazolo[3,4-b]pyridin-5-ylamino)-5,6,7,8-tetrahydro[1]benzothieno[2,3-d]pyrimidin-7-yl]methanone]: inhibition was half-maximal at 15.8 nM (IC50).
The value for `N#CC1CN(C(=O)[C@H]2CCc3c(sc4ncnc(Nc5cnc6[nH]ncc6c5)c34)C2)C1` [Example 99, 1-{[(7S)-4-(1H-Pyrazolo[3,4-b]pyridin-5-ylamino)-5,6,7,8-tetrahydro[1]benzothieno[2,3-d]pyrimidin-7-yl]carbonyl}azetidine-3-carbonitrile] was 14.5 nM; that for `CN(C)[C@H]1CCN(C(=O)[C@H]2CCc3c(sc4ncnc(Nc5cnc6[nH]ncc6c5)c34)C2)C1` [Example 100, [(3S)-3-(Dimethylamino)pyrrolidin-1-yl][(7S)-4-(1H-pyrazolo[3,4-b]pyridin-5-ylamino)-5,6,7,8-tetrahydro[1]benzothieno[2,3-d]pyrimidin-7-yl]methanone] was 3.7 nM; that for `CN(C)[C@@H]1CCN(C(=O)[C@H]2CCc3c(sc4ncnc(Nc5cnc6[nH]ncc6c5)c34)C2)C1` [Example 101, [(3R)-3-(Dimethylamino)pyrrolidin-1-yl][(7S)-4-(1H-pyrazolo[3,4-b]pyridin-5-ylamino)-5,6,7,8-tetrahydro[1]benzothieno[2,3-d]pyrimidin-7-yl]methanone] was 4.6 nM.
The value for `O=C([C@H]1CCc2c(sc3ncnc(Nc4cnc5[nH]ncc5c4)c23)C1)N1CCOCC1` [Example 102, Morpholin-4-yl[(7S)-4-(1H-pyrazolo[3,4-b]pyridin-5-ylamino)-5,6,7,8-tetrahydro[1]benzothieno[2,3-d]pyrimidin-7-yl]methanone] was 27 nM; that for `C[C@@H]1COCCN1C(=O)[C@H]1CCc2c(sc3ncnc(Nc4cnc5[nH]ncc5c4)c23)C1` [Example 103, [(3R)-3-Methylmorpholin-4-yl][(7S)-4-(1H-pyrazolo[3,4-b]pyridin-5-ylamino)-5,6,7,8-tetrahydro[1]benzothieno[2,3-d]pyrimidin-7-yl]methanone] was 35.8 nM.
For the compound `C[C@H]1COCCN1C(=O)[C@H]1CCc2c(sc3ncnc(Nc4cnc5[nH]ncc5c4)c23)C1` [Example 104, [(3S)-3-Methylmorpholin-4-yl][(7S)-4-(1H-pyrazolo[3,4-b]pyridin-5-ylamino)-5,6,7,8-tetrahydro[1]benzothieno[2,3-d]pyrimidin-7-yl]methanone], the midpoint of inhibition, the IC50, lay at 28.7 nM.
`C[C@@H]1CN(C(=O)[C@H]2CCc3c(sc4ncnc(Nc5cnc6[nH]ncc6c5)c34)C2)C[C@H](C)O1` [Example 105, [(2R,6S)-2,6-Dimethylmorpholin-4-yl][(7S)-4-(1H-pyrazolo[3,4-b]pyridin-5-ylamino)-5,6,7,8-tetrahydro[1]benzothieno[2,3-d]pyrimidin-7-yl]methanone] showed an IC50 of 18.1 nM.
With `CN1CCN(C(=O)[C@H]2CCc3c(sc4ncnc(Nc5cnc6[nH]ncc6c5)c34)C2)CC1` [Example 106, (4-Methylpiperazin-1-yl)[(7S)-4-(1H-pyrazolo[3,4-b]pyridin-5-ylamino)-5,6,7,8-tetrahydro[1]benzothieno[2,3-d]pyrimidin-7-yl]methanone], the IC50 came out at 20.4 nM.
